Experimental findings from patent publication US20110251211A9, “METHODS OF USING SUBSTITUTED ISOXAZOLO PYRIDINONES AS DISSOCIATED GLUCOCORTICOIDS” (priority 2009, published 2011) are described below.

Assay type in all cases: cell-based
In assay [1] the target is T1, GR (Homo sapiens, UniProt P04150).
T1 construct: expressed in transfected cells; host or cells: AD293 cells
T1 sequence (P04150 1-777): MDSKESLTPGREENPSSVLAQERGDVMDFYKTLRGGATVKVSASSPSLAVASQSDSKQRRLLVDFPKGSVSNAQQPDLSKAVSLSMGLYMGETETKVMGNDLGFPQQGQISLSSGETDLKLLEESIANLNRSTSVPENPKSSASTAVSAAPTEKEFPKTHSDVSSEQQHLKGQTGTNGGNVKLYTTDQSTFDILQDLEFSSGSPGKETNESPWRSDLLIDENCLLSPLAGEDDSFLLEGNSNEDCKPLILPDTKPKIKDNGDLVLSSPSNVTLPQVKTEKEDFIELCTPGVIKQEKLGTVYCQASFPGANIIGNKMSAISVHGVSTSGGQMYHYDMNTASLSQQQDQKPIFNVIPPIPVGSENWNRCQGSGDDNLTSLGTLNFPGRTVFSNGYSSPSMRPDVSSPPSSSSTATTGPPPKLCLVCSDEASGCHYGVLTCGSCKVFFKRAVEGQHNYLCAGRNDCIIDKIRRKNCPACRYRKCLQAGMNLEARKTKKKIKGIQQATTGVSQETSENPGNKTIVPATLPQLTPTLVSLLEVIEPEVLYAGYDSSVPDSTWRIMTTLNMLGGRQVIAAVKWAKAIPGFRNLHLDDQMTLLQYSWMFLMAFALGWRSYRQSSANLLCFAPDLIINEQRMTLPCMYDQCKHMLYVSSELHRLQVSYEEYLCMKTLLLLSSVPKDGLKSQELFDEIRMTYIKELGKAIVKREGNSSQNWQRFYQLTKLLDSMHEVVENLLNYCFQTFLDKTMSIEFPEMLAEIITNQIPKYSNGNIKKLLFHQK
The assay is described as follows: GR transrepression of NF-kB in AD293 cells (pNF-kB-Luc dual-luciferase reporter). The method, then:
FIG. 10 is a bar graph showing the dose-response of Compound #53 on GR transrepression of NF-kB in AD293 cells.
GR Transrepression of NF-kB in AD293 Cells Transfected with 100 ng GR
[…] Dual-Luciferase values were measured by Promega standard manual.

The target in assay [2] is T1, GR. In words: GR transactivation on MMTV in AD293 cells (pHHLuc dual-luciferase reporter). Conditions: FIG. 5. How it is done:
GR Transactivation on MMTV in∘AD293 Cells Transfected with 0.5 ng GR
AD293 cells were transfected with 0.5 ng GR, 100 ng pHHLuc reporter together with 5 ng Renilla control plasmids, then induced by EtOH (vehicle control), Dexamethasone (10 nM), Compound #53 (5 μM), AL438 (1 μM) and DMSO (vehicle control). Dual-Luciferase values were measured by Promega standard manual, Compound #53's transactivation activity on MMTV in AD293 cells is shown in FIG. 5.

For assay [3], the target named is T1, GR. The assay is described as follows: GR transrepression of AP1 in AD293 cells (AP1-Luc dual-luciferase reporter). How it is done:
FIG. 9 is a bar graph showing the dose-response of Compound #53 on GR transrepression of AP1 in AD293 cells.
GR Transrepression of AP1 in AD293 Cells Transfected with 10 ng GR
AD293 cells were transfected with 10 ng GR, 100 ng AP1-Luc reporter together with 5 ng Renilla control plasmids, then induced by EtOH (vehicle control), Dexamethasone (10 nM), Compound #53 (5 μM), AL438 (1 μM). Dual-Luciferase values were measured by Promega standard manual.
GR Transpression of AP 1 in AD293 Cells Transfected with 50 ng GR
AD293 cells were transfected with 50 ng GR, 100 ng AP1-Luc reporter together with 5 ng Renilla control plasmids, then induced by PMA+EtOH (vehicle control), PMA+Dexamethasone (10 nM), PMA+Compound #53 (5 μM). Dual-Luciferase values were measured by Promega standard manual.

The mark [4] stands for this setting: dose-response repression experiments.

Regarding `CN(C)Cc1ccc(-c2cc3onc(-c4ccccc4)c3c(=O)n2C)cc1` [Compound #53, 6-(4-((dimethylamino)methyl)phenyl)-5-methyl-3-phenylisoxazolo[4,5-c]pyridin-4(5H)-one], at GR [1] (FIG. 8), the “GR transrepression activity on NF-kB compared with currently used GR ligands” value is reported as “stronger GR transrepression activity than currently used GR ligands”. Further, at GR [1] (at 50 μM, dose-response, FIG. 10), the “fold repression of NF-kB” value is “about 1000”. In addition, the “NF-kB activity on the reporter” value at GR [1] (setting [4]) was “almost zero”. In addition, the GR transactivation activity entry at GR [2] was “minimal GR transactivation activity”. The “GR transrepression activity on AP1 compared with currently used GR ligands” value on GR [3] (FIGS. 6-7) is listed as “stronger GR transrepression activity than currently used GR ligands”. On GR [3] (at 50 μM, dose-response, FIG. 9), the “fold repression for AP1” value is on record as “about 2000”. Moreover, the “AP-1 activity on the reporter” value at GR [3] (setting [4]) is on record as “almost zero”.
